Test results published in patent US20080247979A1, “Use of a Hydrophobic Zeolite, that Contains and Gives a Slow Release of an Active Element, for Treatment of Skin” (priority 2005, published 2008).

Assay: free release of ethanol from loaded hydrophobic zeolite over time, with parallel evaporation of non-adsorbed ethanol
Assay type: physicochemical
Details: one gram ethanol not adsorbed to any hydrophobic zeolite, reduced to 0,5 grams
Procedure: After 12 hours, at 29 degrees C., hydrophobic zeolite Y powder has dropped approximately 70% of its ethanol.
Hydrophobic zeolite Y was loaded with 16 weight per cent ethanol and its free release of ethanol over the time at a surrounding temperature off 29 degrees C. was studied. The result appears in FIG. 1. Which also appears from FIG. 1, the hydrophobic zeolite had, after approximately 5 hours, given the half amount of its ethanol, and was still active.
In a parallel experiment evaporation of 95% ethanol, not adsorbed to any hydrophobic zeolite, was measured. One gram of this ethanol had after 8 minutes been reduced through evaporation to 0,5 grams, i e to half the amount. This is a drastic difference compared with ethanol which is adsorbed to hydrophobic zeolite. If the experiment had been executed with 99.5% ethanol instead of 95% it would presumably have been even smaller. Through the hydrophobic zeolite composition the skin is exposed to ethanol vapour during 50 times's longer time as in a normal sponging.
The mentioned hydrophobic zeolite loaded with ethanol gives a vapour that is near 100% ethanol in composition. The ethanol vapour can aggressively attack skin bacteria's in their hydrophobic environment during relatively long time.

CCO [95% ethanol, ethanol]
time until reduced through evaporation to half the amount: 8 min
